Here are results for seven molecules from PubChem BioAssay (NCI).

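Exposure lasted 48 hours, with cells grown in 96-well plates and compounds tested at five concentrations. GI50 = concentration required for 50% inhibition of growth. TGI denotes the concentration required for complete inhibition of growth.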

Test systems include M14 melanoma; UO-31 renal; HCT-116 colon; CCRF-CEM leukemia; SK-MEL-2 melanoma; HCC-2998 colon; HS 578T breast; SK-MEL-5 melanoma; IGROV1 ovarian; SN12C renal.
What all share (assay): growth of human tumour cells (NCI), 48 h

As for `O=S(=O)(Cc1ccc(Cl)cc1Cl)c1ccc(Cl)cc1`, the GI50 in the test on M14 melanoma is 0.5 µM; with UO-31 renal it was 1.03 µM; with HCT-116 colon, 0.471 µM; with CCRF-CEM leukemia it was 0.505 µM; with SK-MEL-2 melanoma it was 0.326 µM; in the test with HCC-2998 colon, 1.09 µM. Also, the GI50 was 0.729 µM with HS 578T breast, 0.437 µM in the test with SK-MEL-5 melanoma, 0.445 µM in the test on IGROV1 ovarian and 1.5 µM with SN12C renal. In addition, the TGI in the test with M14 melanoma is 48.2 µM; in the test with UO-31 renal, greater than 53.3 µM; with HCT-116 colon, greater than 100 µM; with CCRF-CEM leukemia, greater than 100 µM; in the test on HCC-2998 colon, 8.97 µM; in the test on HS 578T breast, greater than 100 µM. In addition, the TGI in the test with SK-MEL-5 melanoma was 24.4 µM; with IGROV1 ovarian, greater than 21.9 µM; with SN12C renal, greater than 100 µM.

`O=c1ccc(N=Nc2ccc([N+](=O)[O-])cc2)ccc1O`: the GI50 was 7.19 µM in the test on M14 melanoma; 5.35 µM in the test on UO-31 renal; 4.19 µM in the test on HCT-116 colon; 3.68 µM in the test with CCRF-CEM leukemia; 9.33 µM with SK-MEL-2 melanoma; 6.08 µM in the test with HCC-2998 colon. Further, the GI50 in the test with HS 578T breast is 4.27 µM; in the test with SK-MEL-5 melanoma it was 6.55 µM; in the test with IGROV1 ovarian it was 6.33 µM; in the test with SN12C renal, 3.61 µM. Further, the TGI with M14 melanoma was greater than 100 µM; in the test on UO-31 renal, greater than 100 µM; in the test on HCT-116 colon it was greater than 100 µM; in the test on CCRF-CEM leukemia, greater than 100 µM; in the test with SK-MEL-2 melanoma it was 73.6 µM; with HCC-2998 colon it was greater than 100 µM. For the same molecule, the TGI in the test with HS 578T breast, with SK-MEL-5 melanoma, in the test with IGROV1 ovarian and in the test on SN12C renal was greater than 100 µM throughout.

Take `Cn1ccnc1C(=O)/C=C/c1ccc(C(=O)Nc2ccc(S(F)(F)(F)(F)F)cc2)cc1`: the GI50 with M14 melanoma was 9.17 µM; in the test on UO-31 renal, 2.22 µM; in the test on HCT-116 colon it was 0.854 µM; in the test on CCRF-CEM leukemia, 0.738 µM; in the test on SK-MEL-2 melanoma it was greater than 14.3 µM; in the test with HCC-2998 colon it was 2.93 µM. Moreover, the GI50 in the test with HS 578T breast is 3.4 µM; in the test on SK-MEL-5 melanoma it was 0.603 µM; in the test on IGROV1 ovarian it was 3.08 µM; in the test with SN12C renal, 2.77 µM. For the same molecule, the TGI with M14 melanoma, in the test on UO-31 renal, in the test on HCT-116 colon, with CCRF-CEM leukemia, in the test on SK-MEL-2 melanoma and in the test with HCC-2998 colon was greater than 14.3 µM each time. Also, the TGI in the test with HS 578T breast was greater than 14.3 µM; with SK-MEL-5 melanoma, 5.99 µM; in the test on IGROV1 ovarian, greater than 14.3 µM; in the test on SN12C renal it was greater than 14.3 µM.

Turning to `Cc1ccc2c(c1)c1nc3cc(C)c(C)cc3nc1n2CCN(C)C`, the GI50 is 1.78 µM with M14 melanoma; 1.07 µM in the test on UO-31 renal; 0.63 µM in the test with HCT-116 colon; 2.05 µM with CCRF-CEM leukemia; 2.15 µM in the test with SK-MEL-2 melanoma; 1.79 µM in the test with HCC-2998 colon. For the same molecule, the GI50 in the test on HS 578T breast is 2.74 µM; with SK-MEL-5 melanoma it was 1.77 µM; in the test on IGROV1 ovarian, 1.93 µM; in the test with SN12C renal it was 1.44 µM. Further, the TGI came out at 3.92 µM in the test on M14 melanoma; 3.48 µM in the test on UO-31 renal; 10.1 µM in the test on HCT-116 colon; 10.6 µM in the test with CCRF-CEM leukemia; 4.87 µM in the test with SK-MEL-2 melanoma; 3.98 µM with HCC-2998 colon. Moreover, the TGI with HS 578T breast was found to be 8.04 µM; in the test on SK-MEL-5 melanoma, 3.18 µM; in the test with IGROV1 ovarian, 4.77 µM; in the test on SN12C renal it was 8.77 µM.

As for `CCCCCCc1cc2cc(-c3nc4ccccc4[nH]3)c(=Nc3ccccc3C)oc2cc1O`, the GI50 was 1.85 µM in the test with M14 melanoma; 1.64 µM with UO-31 renal; 1.83 µM in the test with HCT-116 colon; 2.77 µM with CCRF-CEM leukemia; 2.75 µM in the test with SK-MEL-2 melanoma; 22.2 µM in the test on HCC-2998 colon. Also, the GI50 was 2.37 µM in the test on HS 578T breast, 2 µM in the test with SK-MEL-5 melanoma, 2.07 µM in the test with IGROV1 ovarian and 1.73 µM in the test with SN12C renal. The TGI is 3.6 µM in the test on M14 melanoma; 4.49 µM with UO-31 renal; 3.63 µM with HCT-116 colon; 9.59 µM in the test on CCRF-CEM leukemia; 6.61 µM with SK-MEL-2 melanoma; greater than 77.3 µM with HCC-2998 colon. The TGI turned out to be 6.71 µM with HS 578T breast, 4.96 µM in the test on SK-MEL-5 melanoma, 5.89 µM in the test on IGROV1 ovarian and 4.1 µM in the test with SN12C renal.

Regarding `COc1cc(-c2nc3sccn3c2-c2ccnc(NCCNS(=O)(=O)c3ccc(Cl)cc3)n2)ccc1F`, the GI50 is 3.62 µM in the test with M14 melanoma; 2.72 µM with UO-31 renal; 3.56 µM in the test on HCT-116 colon; 0.48 µM in the test on CCRF-CEM leukemia; 3.46 µM in the test on SK-MEL-2 melanoma; 5.82 µM with HCC-2998 colon. Further, the GI50 in the test on HS 578T breast was 8.05 µM; in the test with SK-MEL-5 melanoma, 1.87 µM; with IGROV1 ovarian it was 3 µM; with SN12C renal, 4.11 µM. Further, the TGI with M14 melanoma is greater than 100 µM; in the test with UO-31 renal, greater than 100 µM; with HCT-116 colon it was greater than 100 µM; in the test on CCRF-CEM leukemia it was greater than 100 µM; in the test on SK-MEL-2 melanoma it was 35.3 µM; in the test with HCC-2998 colon it was greater than 100 µM. The TGI is greater than 100 µM in the test on HS 578T breast, 4.19 µM in the test with SK-MEL-5 melanoma, greater than 100 µM in the test with IGROV1 ovarian and greater than 100 µM in the test on SN12C renal.

As for `CCCCOc1ccc(NC(=O)n2nc(N)c3ccccc32)cc1`, the GI50 is 17.7 µM in the test with M14 melanoma; 13.4 µM with UO-31 renal; 19.3 µM in the test with HCT-116 colon; 0.0755 µM in the test on CCRF-CEM leukemia; 27.8 µM in the test on SK-MEL-2 melanoma; 17 µM in the test on HCC-2998 colon. In addition, the GI50 is 20.7 µM with HS 578T breast, 14.9 µM with SK-MEL-5 melanoma, 33 µM with IGROV1 ovarian and 23.4 µM in the test with SN12C renal. Besides, the TGI with M14 melanoma was 42.2 µM; in the test on UO-31 renal, greater than 100 µM; in the test on HCT-116 colon, 55.7 µM; in the test with CCRF-CEM leukemia, 4.68 µM; in the test on SK-MEL-2 melanoma, 76 µM; in the test on HCC-2998 colon it was 37 µM. The TGI with HS 578T breast is 53.4 µM; in the test with SK-MEL-5 melanoma it was 28.2 µM; with IGROV1 ovarian, greater than 100 µM; in the test on SN12C renal, 85.9 µM.
